Test results taken from patent US10092529B2, “Necrosis inhibitors” (National Institute of Biological Sciences, Beijing, priority 2014, dated 2018).

Tested on: HT-29 cells
Test: Necrosis assay: TNF-α/Smac mimetic/z-VAD induced necrosis, cell viability by CellTiter-Glo
Assay type: cell-based
Settings: Homo sapiens, inhibition of necrosis, ATP levels, range given in uM, read-out: EC50 (necrosis activity)
Description: HT-29 cells were cultured in McCoy's 5A culture medium (Invitrogen). On day one, HT-29 cells were plated in 96-well assay plates at density of 2,500-3,500 cells per well. On day two, necrosis were induced by adding 20 ng/ml TNF-α (T), 100 nM Smac mimetic (S), and […] z-VAD (Z). At the same time, […] compound from a chemical library of ˜200,000 compounds was delivered into each well. After 24 hrs treatment, cell viability was determined by measuring ATP level using the CellTiter-Glo Luminescent Cell Viability Assay kit. A CellTiter-Glo Assay (Promega) was performed according to the manufacturer's instructions Luminescence was recorded with a PerkinElmer EnSpire Multimode Plate Reader. Survived cells were normalized to those cells treated with DMSO. Nec-1 was used as a positive control for screening necrosis inhibitors. Data are represented as mean±standard deviation of duplicates.
Dose-dependent inhibition of necrosis by compound #9 and the derivative compounds in HT-29 cells were determined by measuring ATP levels as described above.

SMILES	EC50
CCC(C)(C)C(=O)N1CC[C@H](O)[C@H]1c1ccccc1 [Compound S1, 1-((2R,3S)-3-hydroxy-2-phenylpyrrolidin-1-yl)-2,2-dimethylbutan-1-one]	1 to 10 µM
CCC(C)(C)C(=O)N1CCNCC1c1ccccc1 (centres unmarked) [Compound 17, 2,2-dimethyl-1-(2-phenylpiperazin-1-yl)butan-1-one]	1 to 100 µM
CC(C)(C)S(=O)(=O)N1C(=O)C[C@H]1c1ccccc1 [Compound 45, (S)-1-(tert-butylsulfonyl)-4-phenylazetidin-2-one]	1 to 100 µM
CCS(=O)(=O)N1CC[C@H]1c1ccccc1 [Compound S6, (S)-1-(ethylsulfonyl)-2-phenylazetidine]	1 to 100 µM
CCC(C)(C)C(=O)N1NC(=O)CC1c1ccccc1 (centres unmarked) [Compound 34, 1-(2,2-dimethylbutanoyl)-5-phenylpyrazolidin-3-one]	1 to 100 µM
CCC(C)(C)C(=O)N1CC1c1ccccc1 (centres unmarked) [Compound 1, 2,2-dimethyl-1-(2-phenylaziridin-1-yl)butan-1-one]	1 to 100 µM
CC(F)(F)C(C)(C)C(=O)N1CCC=C[C@H]1C1CCCCC1 [Compound S13]	1 to 100 µM
CC(F)(F)C(C)(C)C(=O)N1CC=C[C@H]1c1ccccc1 [Compound S16]	1 to 100 µM
CCN1C(=O)OC[C@H]1c1ccccc1 [Compound 51, (R)-3-ethyl-4-phenyloxazolidin-2-one]	1 to 100 µM
CC(=O)N1C(=O)OC[C@H]1c1ccccc1 [Compound 39, (R)-3-acetyl-4-phenyloxazolidin-2-one]	1 to 10 µM
CC(C)S(=O)(=O)N1C(=O)C[C@H]1c1ccccc1 [Compound 42, (S)-1-(isopropylsulfonyl)-4-phenylazetidin-2-one]	1 to 100 µM
CCC(C)(C)C(=O)n1cccc1-c1ccccc1 [Compound 78, 2,2-dimethyl-1-(2-phenyl-1H-pyrrol-1-yl)butan-1-one]	1 to 100 µM
C#CCN1C(=O)C[C@H]1c1ccccc1 [Compound 49, (S)-4-phenyl-1-(prop-2-ynyl)azetidin-2-one]	1 to 100 µM
CCC(C)(C)C(=O)N1CCOC1c1ccccc1 (centres unmarked) [Compound 6, 2,2-dimethyl-1-(2-phenyloxazolidin-3-yl)butan-1-one]	1 to 100 µM
CCC(C)(C)C(=O)N1C(=O)CCC1c1ccccc1 (centres unmarked) [Compound 29, 1-(2,2-dimethylbutanoyl)-5-phenylpyrrolidin-2-one]	1 to 100 µM
CC(F)(F)C(C)(C)C(=O)N1C=CC=CC1C1CCCCC1 (centres unmarked) [Compound S14]	1 to 100 µM
CCC(C)(C)C(=O)N1CCC(=O)[C@H]1c1ccccc1 [Compound S3, (R)-1-(2,2-dimethylbutanoyl)-2-phenylpyrrolidin-3-one]	1 to 10 µM
CC(F)(F)C(C)(C)C(=O)N1CCC=C[C@H]1c1ccccc1 [Compound S17]	1 to 100 µM
C#CC(C)(C)C(=O)N1C(=O)CC1c1cccc(N=[N+]=[N-])c1 (centres unmarked) [Compound 44, 4-(3-azidophenyl)-1-(2,2-dimethylbut-3-ynoyl)azetidin-2-one]	1 to 10 µM
CCC(C)(C)C(=O)N1CCN(C(=O)OC(C)(C)C)CC1c1ccccc1 (centres unmarked) [Compound 19, tert-butyl 4-(2,2-dimethylbutanoyl)-3-phenylpiperazine-1-carboxylate]	1 to 100 µM
CCS(=O)(=O)N1C(=O)C[C@H]1c1ccccc1 [Compound 43, (S)-1-(ethylsulfonyl)-4-phenylazetidin-2-one]	1 to 100 µM
CCC(C)(C)C(=O)N1C(=O)CC1c1cccc([N+](=O)[O-])c1 (centres unmarked) [Compound 28, 1-(2,2-dimethylbutanoyl)-4-(3-nitrophenyl)azetidin-2-one]	1 to 10 µM
CCC(C)(C)C(=O)N1C[C@H](O)[C@H]1c1ccccc1 [Compound S5, 1-((2R,3S)-3-hydroxy-2-phenylazetidin-1-yl)-2,2-dimethylbutan-1-one]	1 to 100 µM
CC(F)(F)C(C)(C)C(=O)N1C=CC=CC1c1ccccc1 (centres unmarked) [Compound S15]	1 to 100 µM
O=C1C[C@@H](c2ccccc2)N1C(=O)C1C2CC3CC(C2)CC1C3 (stereo partly drawn) [Compound 47, (S)-1-(adamantane-2-carbonyl)-4-phenylazetidin-2-one]	1 to 10 µM
CCC(C)(C)C(=O)N1C[C@@H](O)[C@H]1c1ccccc1 [Compound S4, 1-((2R,3R)-3-hydroxy-2-phenylazetidin-1-yl)-2,2-dimethylbutan-1-one]	1 to 10 µM
CC(C)(C)S(=O)(=O)N1CC[C@H]1c1ccccc1 [Compound S8, (S)-1-(tert-butylsulfonyl)-2-phenylazetidine]	1 to 100 µM
CCC(C)(C)C(=O)N1CC(O)C1c1ccccc1 (centres unmarked) [Compound 16, 1-(3-hydroxy-2-phenylazetidin-1-yl)-2,2-dimethylbutan-1-one]	1 to 10 µM
CC(C)(C)[S+]([O-])N1C(=O)C[C@H]1c1ccccc1 (stereo partly drawn) [Compound 41, (4S)-1-(tert-butylsulfinyl)-4-phenylazetidin-2-one]	1 to 100 µM

Same assay, conditions: inhibition of necrosis, ATP levels, range given in nM, read-out: EC50 (necrosis activity)

SMILES	EC50
CCC(C)(C)C(=O)N1COC[C@H]1c1ccccc1 [Compound 8, (R)-2,2-dimethyl-1-(4-phenyloxazolidin-3-yl)butan-1-one]	0.001 to 1 µM
C#CC(C)(C)C(=O)N1CC[C@H]1c1ccccc1 [Compound 46, (S)-2,2-dimethyl-1-(2-phenylazetidin-1-yl)but-3-yn-1-one]	0.001 to 1 µM
CC(C)(C)C(=O)N1CCCC1c1ccccc1 (centres unmarked) [Compound S11, 2,2-dimethyl-1-(2-phenylpyrrolidin-1-yl)propan-1-one]	0.001 to 1 µM
CCC(C)(C)C(=O)N1C(=O)C(F)(F)C1c1ccccc1 (centres unmarked) [Compound 32, 1-(2,2-dimethylbutanoyl)-3,3-difluoro-4-phenylazetidin-2-one]	0.001 to 1 µM
CCC(C)(C)C(=O)N1CCCC1c1ccccc1 (centres unmarked) [Compound 4, 2,2-dimethyl-1-(2-phenylpyrrolidin-1-yl)butan-1-one]	0.001 to 1 µM
CCC(C)(C)C(=O)N1CCCC1c1cccc(F)c1 (centres unmarked) [Compound 9, 1-(2-(3-fluorophenyl)pyrrolidin-1-yl)-2,2-dimethylbutan-1-one]	0.001 to 1 µM
CCC(C)(C)C(=O)N1C(=O)CC1c1cccc(Br)c1 (centres unmarked) [Compound 26, 4-(3-bromophenyl)-1-(2,2-dimethylbutanoyl)azetidin-2-one]	0.001 to 1 µM
CCC(C)(C)C(=O)N1C(c2ccccc2)CCN1C (centres unmarked) [Compound 22, 2,2-dimethyl-1-(2-methyl-5-phenylpyrazolidin-1-yl)butan-1-one]	0.001 to 1 µM
CC(C)(C)C(=O)N1CC[C@H]1c1ccccc1 [Compound S12, (S)-2,2-dimethyl-1-(2-phenylazetidin-1-yl)propan-1-one]	0.001 to 1 µM
CC(F)(F)C(C)(C)C(=O)N1CCCC1c1ccccc1 (centres unmarked) [Compound S10, 3,3-difluoro-2,2-dimethyl-1-(2-phenylpyrrolidin-1-yl) butan-1-one]	0.001 to 1 µM
CCC(C)(C)C(=O)N1N=CCC1c1ccccc1 (centres unmarked) [Compound 20, 2,2-dimethyl-1-(5-phenyl-4,5-dihydro-1H-pyrazol-1-yl)butan-1-one]	0.001 to 1 µM
CC(F)(F)C(C)(C)C(=O)N1CC[C@H]1c1ccccc1 [Compound S9]	0.001 to 1 µM
CCC(C)(C)C(=O)N1CC(F)(F)C1c1ccccc1 (centres unmarked) [Compound 14, 1-(3,3-difluoro-2-phenylazetidin-1-yl)-2,2-dimethylbutan-1-one]	0.001 to 1 µM
O=C(N1CCCC1c1cccc(F)c1)C1(C(F)(F)F)CCCC1 (centres unmarked) [Compound 35, (2-(3-fluorophenyl)pyrrolidin-1-yl)(1-(trifluoromethyl)cyclopentyl)methanone]	0.001 to 1 µM
CCC(C)(C)C(=O)N1CCCC1C1CCCCC1 (centres unmarked) [Compound 5, 1-(2-cyclohexylpyrrolidin-1-yl)-2,2-dimethylbutan-1-one]	0.001 to 1 µM
O=C(N1CCCC1c1cccc(F)c1)C1(C(F)(F)F)CCC1 (centres unmarked) [Compound 36, (2-(3-fluorophenyl)pyrrolidin-1-yl)(1-(trifluoromethyl)cyclobutyl)methanone]	0.001 to 1 µM
C#Cc1cccc(C2CC(=O)N2C(=O)C(C)(C)CC)c1 (centres unmarked) [Compound 27, 1-(2,2-dimethylbutanoyl)-4-(3-ethynylphenyl)azetidin-2-one]	0.001 to 1 µM

Same assay, conditions: inhibition of necrosis, ATP levels, range given in uM, read-out: EC50 (necrosis activity)

SMILES	EC50
CCC(C)(C)C(=O)N1CCC1c1ncc(C)s1 (centres unmarked) [Compound 65]	1 to 1000 µM
C=CC(C)(C)C(=O)N1C=CC=C[C@H]1C1CCCCC1 [Compound 57]	1 to 1000 µM
C=CC(C)(C)C(=O)N1CCCC1c1ccccc1 (centres unmarked) [Compound 69]	1 to 1000 µM
C=CC(C)(C)C(=O)N1CC=C[C@H]1c1ccccc1 [Compound 73]	1 to 1000 µM
CCC(C)(C)C(=O)N1CCC1c1cccs1 (centres unmarked) [Compound 59]	1 to 1000 µM
CCC(C)(C)C(=O)N1CCC1c1cccc(F)c1 (centres unmarked) [Compound 71]	1 to 1000 µM
CCC(C)(C)C(=O)N1CCC=C[C@H]1C1CCCCC1 [Compound 53]	1 to 1000 µM
C=CC(C)(C)C(=O)N1CCC=C[C@H]1c1ccccc1 [Compound 75]	1 to 1000 µM
C=CC(C)(C)C(=O)N1CCC1c1ncc(C)s1 (centres unmarked) [Compound 66]	1 to 1000 µM
C=CC(C)(C)C(=O)N1C=CC=CC1c1ccccc1 (centres unmarked) [Compound 58]	1 to 1000 µM
C=CC(C)(C)C(=O)N1CCC1c1ccco1 (centres unmarked) [Compound 64]	1 to 1000 µM
C=CC(C)(C)C(=O)N1CC[C@H]1c1ccccc1 [Compound 68]	1 to 1000 µM
C=CC(C)(C)C(=O)N1CCC1c1ccc(C)s1 (centres unmarked) [Compound 63]	1 to 1000 µM
CCC(C)(C)C(=O)N1CCC1c1ccc(C)s1 (centres unmarked) [Compound 60]	1 to 1000 µM
C=CC(C)(C)C(=O)N1CCC=C[C@H]1C1CCCCC1 [Compound 54]	1 to 1000 µM
CCC(C)(C)C(=O)N1CCC1c1ccco1 (centres unmarked) [Compound 61]	1 to 1000 µM
